The source of these data is US9382230B2, “Methods and compositions for modulating Ire1, SRC and ABL activity” (The Regents of the University of California, priority 2008, dated 2016).

The test system of test [1] is Ire1. Nature of the test: Summary statement of Ire1 activation or inhibition (assay not specified).
Test [2] concerns the target T1, yIre1 (Saccharomyces cerevisiae, UniProt P32361).
T1 construct: GST (N); made in house; host or cells: E. coli BL21 CodonPlus (RIPL)
T1 sequence (P32361 with tags, fused parts or gaps limits assumed): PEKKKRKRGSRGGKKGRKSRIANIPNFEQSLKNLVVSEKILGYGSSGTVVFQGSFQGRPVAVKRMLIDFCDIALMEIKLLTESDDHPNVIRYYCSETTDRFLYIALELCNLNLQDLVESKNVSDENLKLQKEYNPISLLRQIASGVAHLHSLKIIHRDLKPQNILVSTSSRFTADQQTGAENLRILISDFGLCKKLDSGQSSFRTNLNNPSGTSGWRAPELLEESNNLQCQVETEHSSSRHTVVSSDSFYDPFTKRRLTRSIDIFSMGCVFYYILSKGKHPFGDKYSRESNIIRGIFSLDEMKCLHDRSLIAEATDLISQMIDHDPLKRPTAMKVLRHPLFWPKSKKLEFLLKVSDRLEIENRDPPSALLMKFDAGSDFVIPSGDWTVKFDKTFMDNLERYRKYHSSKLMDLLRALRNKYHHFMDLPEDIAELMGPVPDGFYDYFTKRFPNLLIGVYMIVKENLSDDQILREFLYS
Briefly: RNA cleavage-based yIre1 activation assay. Type of test: biochemical, yeast. Also noted: unit not given here. As to conditions: 3 μM yIre1, stem loop RNA, 15 μM effector.

In test [3] the test system is Xbp-1 mRNA splicing (UPR activation through Ire1) in HEK293 cells. Nature of the test: XBP-1 mRNA splicing by RT-PCR in HEK293 cells (UPR). The format is cell-based, mammalian. Conditions: Hek293 cells treated for 4 hrs, RT-PCR.
For test [4], the target named is T1, yIre1. Briefly: RNA cleavage-based yIre1 inhibition assay with pre-activated purified Ire1. Type of test: biochemical, yeast. Conditions: 1.5 μM yIre1, 100 μM ADP-2 mM Mg, 30 μM effector (FIG. 21A). The procedure:
FIGS. 21A and B. A. RNA cleavage-based yIre1 inhibition assay with purified Ire1 under conditions that have pre-activated Ire1. […] Thus, some APY compounds could serve as both Ire1 RNase inhibitors or Ire1 RNase activators, depending on the experimental setting.
[…] Reaction solutions and buffers were designed using Biochem Lab Solutions 3.5. Reactions were prepared such that 1 μl of RNA was added to 9 μl of pre-warmed reaction mixture containing all components except RNA. Typically, 3-10 minute time courses were collected starting from 5 seconds for the first time point. At time intervals, 1 μl of solution was withdrawn from each reaction and mixed wish 6 μl stop solution containing 10 M urea, 0.1% SDS, 0.1 mM EDTA, 0.05% xylene cyanol, and 0.05% bromophenol blue. The samples were separated by a denaturing 10% PAGE and exposed on a phosphor storage screen. The screens were scanned on a Storm or a Typhoon instrument and quantified using ImageQuant 5.0 or GelQuant.NET 1.4 programs. The data were plotted and fit in SigmaPlot 6.0.
An RNA cleavage inhibition assay was also performed with exemplary compounds as shown by FIG. 21A (1.5 μM yIre1 mm loop RNA, 100 μM ADP-2 mM Mg, 30 μM effector).

In the case of `Cc1cc(Nc2cc(C3CCCCC3)n[nH]2)nc(Nc2ccc(CC#N)cc2)n1` [APY81], in test [1], the “inhibition of Ire1” value was “significant inhibition”. Also, in test [2], the “RNA cleavage (yIre1 activation)” value turned out to be 0.001872. For the same compound, the “% splicing mRNA XBP-I Average” value in test [3] (Tm 0.3 ug/ml + compound 2 μM) amounted to 7%; in test [3] (compound 2 μM), 11%; in test [3] (compound 10 μM), 16%. In addition, the “inhibition of Ire1 RNase” value in test [4] is reported as “inhibit Ire1”.
